Results as given in patent publication US10238677B2, “Treatment of filarial diseases” (AbbVie Inc., priority 2015, dated 2019).
“And” between values parts separate entries of the source, which are not always exact repeats. Equal values may be shown once. Each block holds one molecule with its values, some of them ahead of it.

What was measured:
[1] = system: Wolbachia in Brugia malayi larvae; test: Larval Brugia malayi mouse model, Wolbachia wsp qPCR; type: in vivo, BALB/c IL4Rα−/− mice; details: vs median vehicle control
From the text: […] At 14 days post-infection, larvae were recovered from the peritoneal cavity, counted, and length measured. Genomic DNA was extracted from individual worms (10/group) and quantification of the Wolbachia surface protein (wBm-wsp) gene copy numbers performed by quantitative PCR.
Treatment dose (mg/kg) shown in parentheses and duration stated in days (d). Abbreviations: DOX (doxycycline), bid (twice daily), qd (once daily), PO (oral), […]. Data in Table 2 are expressed as a reduction in Wolbachia load in comparison to the vehicle control group.
[…] […] Treatment dose (mg/kg) shown in parentheses and duration stated in days (d). Abbreviations: DOX (doxycycline), qd (once daily).

[2] = system: Wolbachia pipientis (Wolbachia strain wAlbB) in C6/36 Aedes albopictus cell line; test: In vitro anti-Wolbachia cell-based screening assay; details: Table 1A, anti-Wolbachia activity, 7 days incubation
Experimental: A C6/36 Aedes albopictus cell line infected with Wolbachia pipientis (Wolbachia strain wAlbB) derived from Aa23 A. albopictus cell line (O'Neill et al., 1997; Insect Mol Biol; Turner et al., (2006) J. Immunol. 7:1240-1249) was used to screen compounds. Cells were cultured in Leibovitz's L15 +L-glutamine supplemented with heat-inactivated Foetal Calf Serum (HI-FCS), non-essential amino acids and tryptose phosphate broth. Culture medium was filter-sterilized through a 0.2 μm filter and stored at 4° C. Compounds were provided as 10 mM stocks in DMSO, diluted to 50 μM working stock to give final concentration of 5 μM on the test plate. Concentrated stocks were frozen at −20° C.
Prior to use in the screening assay, cell cultures were sub-passaged (6 days prior) to provide ˜90% confluent cells on Day 0 of screening assay. On Day 0 (assay set-up), the medium was removed from the stock culture flask and replaced with fresh medium. The cells were detached by scraping and cell density was calculated using an automated cell counter. The cells were then diluted at working density and aliquoted at 90 μl to each well of a Cell Carrier 384 well plate (Perkin Elmer). Cell plates were incubated at 26° C.
Control solution (DMSO-medium) was dispensed at 10 μl per well for “untreated” wells. Test solution (Drug-DMSO) was also dispensed at 10 μl (from working plate) per well for “treated” wells. The plates were incubated at 26° C., inside plastic wallet in incubator, for 7 days.
On Day 7, 25 μl of staining medium/dye (SYTO 11, Life Technologies) was added to each sample well and allowed to stain for 15 minutes in the dark. All the medium was removed from each sample well without disturbing the cells and replaced with 100 μl of fresh medium. Plates were imaged on the Operetta High Content Imaging system (Perkin Elmer) and analyzed using texture analysis through Harmony software (Perkin Elmer). The cell-based screen and analysis are described in detail in Clare et al. (2014) J Biomol Screen.

[3] = system: Wolbachia in adult Brugia malayi; test: Adult Brugia malayi mouse model, Wolbachia wsp qPCR; type: in vivo, BALB/c CCR3−/− mice
From the text: In an adult Brugia malayi mouse model treatment groups (BALB/c CCR3−/−mice, 6-8 week old) received compounds by oral delivery for 7-28 days beginning at 6-10 weeks post-infection intraperitoneal with Brugia malayi third-stage larvae. Following treatment, at 12 weeks post-infection, adult worms and released microfilariae were recovered from the peritoneal cavity, counted and staged for sex. Genomic DNA was extracted from individual adult worms (10/group) and quantification of the Wolbachia surface protein (wBm-wsp) performed by quantitative PCR.
Treatment dose (mg/kg/day) shown in parentheses and duration stated in days (d). MIN (minocycline), bid (twice daily), qd (once daily). Data in Table 4 are expressed as a reduction in Wolbachia load in comparison to the vehicle control group.
Treatment dose (mg/kg/day) shown in parentheses and duration stated in days (d). MIN (minocycline), bid (twice daily), qd (once daily).

[4] = system: Wolbachia in Litomosoides sigmodontis larvae; test: Larval Litomosoides sigmodontis mouse model, Wolbachia ftsZ qPCR; type: in vivo, BALB/c mice; details: vs vehicle control
Experimental: In this mouse model of filariasis (Hoerauf A, et al. (1999) Journal of Clinical Investigation 103(1):11-18), BALB/c mice (6-8 week old) were infected via natural larvae transmission, through the bite of infected tropical mites (Ornithonyssus bacoti), and treatment started on the day following infection. Anti-Wolbachia efficacy was measured by quantitative PCR analysis, using genomic DNA extracted from larvae, of the Wolbachia ftsZ gene, and expressed as a reduction in Wolbachia load in comparison to the vehicle control group. […] Thus, tylosin A effectively cleared Wolbachia from filarial larvae (Litomosoides sigmodontis) in a mouse model of filariasis when delivered parenterally (intraperitoneally), to a similar extent to doxycycline, with a shorter dosing regimen.

[5] = system: Brugia malayi microfilariae; test: Adult Brugia malayi jird model, motile peritoneal microfilariae load; type: in vivo, Mongolian jirds (Meriones unguiculatus); details: Table 7, 200 mg/kg qd oral 21 d
Experimental: (§1) In this model of adult filarial (macrofilariae) infection, Mongolian jirds (Meriones unguiculatus) were infected intraperitoneally with Brugia malayi third-stage larvae (Ash and Riley, (1970) J Parasitol. 56(5):969-73). Infected jirds were treated at +12-20 weeks post-infection for periods up to 6 weeks. Jirds were necropsied for worm recoveries. Adult worms were staged for sex and motile released microfilariae were counted. Genomic DNA was extracted from individual worms (10/group) and quantification of the Wolbachia surface protein (wBm-wsp) and Brugia malayi glutathione S-transferase (Bm-gst) gene copy numbers performed by quantitative PCR, and expressed as a reduction in Wolbachia load in comparison to the vehicle control group.
(§2) Treatment dose (mg/kg/day) shown in parentheses and duration stated in days (d). DOX (doxycycline), qd (once daily).

[6] = system: Wolbachia in adult male Onchocerca ochengi; test: Adult Onchocerca ochengi mouse model, Wolbachia:gst qPCR; type: in vivo, CB.17 SCID (BALB/c congenic) mice; details: Table 8; 25 mg/kg bid oral 28 d; vs median vehicle control
Experimental: In this model, adult male Onchocerca ochengi (closest relative species to the human parasite causing river blindness, Onchocerca volvulus) are derived from cattle natural hosts and surgically implanted into the peritoneal cavity of CB.17 SCID (BALB/c congenic) mice under anaesthesia (Halliday et al Parasit. Vectors 2014 7:472). After 3 days following surgery, mice were treated by oral gavage for periods up to 4 weeks. Mice were necropsied for worm recoveries 6 weeks after start of treatment. Genomic DNA was extracted from individual worms (n=10/group) and quantification of the Wolbachia surface protein (wBm-wsp) and Onchocerca glutathione S-transferase (Ov-gst) gene copy numbers performed by quantitative PCR. Data is expressed as a reduction in Wolbachia:gst ratios in comparison to the vehicle control group.
Treatment dose (mg/kg/day) shown in parentheses and duration stated in days (d). DOX (doxycycline), qd (once daily) bid (twice daily).

[7] = system: Wolbachia in adult Brugia malayi; test: Adult Brugia malayi jird model, Wolbachia load; type: in vivo, Mongolian jirds (Meriones unguiculatus); details: Table 6; 200 mg/kg qd oral 21 d; vs median vehicle control
Experimental: as §1, §2

Loa loa microfilariae = Loa loa microfilariae ex vivo counter-screen; type: cell-based; details: for Motility (mean % vs baseline) / Survival (%): 64 μg/ml
From the text: This ex vivo assay is used to assess direct Loa loa microfilaricidal effects of drug compounds. Bloodborne Loa loa microfilariae are generated from experimental infections of splenectomised baboons with the human stain of L. loa (Orihel et al, Trop Med Parasitol, 1985. 36: p.215). L. loa microfilariae were purified from venous blood samples by Percoll gradient centrifugation. Loa loa microfilariae were adjusted to a density of 0.5×10^4/ml and plated into 96-well plates in Dulbecco's Modified Eagle Medium (DMEM) containing 10% Foetal Calf Serum (FCS). Triplicate wells of Loa loa microfilariae were exposed to either ivermectin (64 μg/ml: positive control), compound 10 (0.018 and 0.18 μg/ml), compound 19 (0.11 and 1.11 μg/ml) or 0.1% DMSO vehicle control. Dose levels of compound 10 and compound 19 were matched to predictive Cmax and 10× Cmax human plasma concentrations based on PK-PD modeling. L. loa were cultured at 37° C./5% CO2 for +7 days and monitored daily with a semi-quantitative score applied to individual mf motility.

[8] = Table 2, 50 mg/kg qd PO 14 d, 50 mg/kg

EC50 ([2]; C6/36, 168 h): 36 nM | EC50 [2]: 24 nM and 26 nM
Molecule: CC[C@H]1OC(=O)C[C@@H](O)[C@H](C)[C@@H](O[C@@H]2O[C@H](C)[C@@H](O[C@H]3C[C@@](C)(O)[C@@H](O)[C@H](C)O3)[C@H](N(C)C)[C@H]2O)[C@@H](CC=O)C[C@@H](C)C(=O)/C=C/C(C)=C/[C@@H]1CO[C@@H]1O[C@H](C)[C@@H](O)[C@@H](OC)[C@H]1OC [Tylosin A, 2-((4R,5S,6S,7R,9R,11E,13E,15R,16R)-6-(((2R,3R,4R,5S,6R)-5-(((2S,4R,5S,6S)-4,5-dihydroxy-4,6-dimethyltetrahydro-2H-pyran-2-yl)oxy)-4-(dimethylamino)-3-hydroxy-6-methyltetrahydro-2H-pyran-2-yl)oxy)-16-ethyl-4-hydroxy-15-((((2R,3R,4R,5R,6R)-5-hydroxy-3,4-dimethoxy-6-methyltetrahydro-2H-pyran-2-yl)oxy)methyl)-5,9,13-trimethyl-2,10-dioxooxacyclohexadeca-11,13-dien-7-yl)acetaldehyde]
% Wolbachia reduction ([1]; Table 2, 50 mg/kg qd IP 14 d, 50 mg/kg): 99.9% | % Wolbachia reduction ([1]; Table 2, 50 mg/kg qd IP 14 d, listed as TYL A, 50 mg/kg): 99.9% | % Wolbachia reduction [1, 8]: 50.4% | % Wolbachia reduction ([1]; Table 2, 50 mg/kg qd PO 14 d, listed as TYL A, 50 mg/kg): 50.4% | % Wolbachia reduction ([3]; Table 4, 50 mg/kg qd oral 14 d, vs median vehicle control): 0% | Wolbachia reduction ([4]; 7 days treatment, oral dosing): 21.9% | Wolbachia reduction ([4]; 7 days treatment, parenteral (intraperitoneal) dosing): 91.7%

EC50 [2]: 88 nM
Molecule: CC[C@H]1OC(=O)C[C@@H](O)[C@H](C)[C@@H](O[C@@H]2O[C@H](C)[C@@H](O)[C@H](N(C)C)[C@H]2O)[C@@H](CC=O)C[C@@H](C)C(=O)/C=C/C(C)=C/[C@@H]1CO[C@@H]1O[C@H](C)[C@@H](O)[C@@H](OC)[C@H]1OC [Tylosin B, desmycosin]

Molecule: C[C@H]1c2cccc(O)c2C(=O)C2=C(O)[C@]3(O)C(=O)C(C(N)=O)=C(O)[C@@H](N(C)C)[C@@H]3[C@@H](O)[C@@H]21 [doxycycline]
% reduction in microfilariae [5]: 90.5% | % Wolbachia reduction ([1]; Table 2, 50 mg/kg qd PO 7 d): 88.7% | % Wolbachia reduction [1, 8]: 98.3% | % Wolbachia reduction ([1]; Table 2, 50 mg/kg qd PO 14 d, listed as DOX, 50 mg/kg): 98.3% | % Wolbachia reduction ([1]; Table 3, 50 mg/kg qd oral 7 d, 50 mg/kg): 77.4% | % Wolbachia reduction ([1]; Table 3, 50 mg/kg qd oral 7 d, listed as DOX, 50 mg/kg): 77.4% | % Wolbachia reduction ([1]; Table 3, 50 mg/kg qd oral 14 d, 50 mg/kg): 99.3% | % Wolbachia reduction ([1]; Table 3, 50 mg/kg qd oral 14 d, listed as DOX, 50 mg/kg): 99.3% | % Wolbachia reduction [6]: 99.8% | Wolbachia reduction ([4]; 50 mg/kg/day for 14 days): 99.9% | % Wolbachia reduction [7]: 99.1%

Molecule: CN(C)c1ccc(O)c2c1C[C@H]1C[C@H]3[C@H](N(C)C)C(O)=C(C(N)=O)C(=O)[C@@]3(O)C(O)=C1C2=O [minocycline]
% Wolbachia reduction [6]: 99.7% | % Wolbachia reduction ([3]; Table 4, 25 mg/kg bid oral 28 d, vs median vehicle control, 25 mg/kg): 83.8% | % Wolbachia reduction ([3]; Table 4, 25 mg/kg bid oral 28 d, vs median vehicle control, listed as MIN, 25 mg/kg): 83.8% | % Wolbachia reduction ([3]; Table 5 dose escalation study, 25 mg/kg bid oral 28 d): 95.5%

Molecule: ivermectin
Motility (mean % vs baseline) (Loa loa microfilariae; exposure time 2 days): 5.71% | Survival (%) (Loa loa microfilariae; exposure time 2 days): 100% | Motility (mean % vs baseline) (Loa loa microfilariae; exposure time 7 days): 0% | Survival (%) (Loa loa microfilariae; exposure time 7 days): 0% | Effect on Loa loa microfilariae motility (in words) (Loa loa microfilariae; ex vivo culture, period of 7 days): completely immotile | Reduction in motility (Loa loa microfilariae; in +2 days): > 90%
